Values of other authors, collected in patent publication US7815936B2, “Use of granular materials based on pyrogenically produced silicon dioxide in pharmaceutical compositions” (Evonik Degussa GmbH, priority 2001, dated 2010).

Settings: pure active constituent in water, reached only after shaking over several days

saturation equilibrium value: 1.1 mg/100 ml
Structure (SMILES): C#C[C@]1(O)CC[C@H]2[C@@H]3CCc4cc(O)ccc4[C@H]3CC[C@@]21C [ethinyl oestradiol]
